The test system of one data set is HeLa cells. The experiment in a line: In vitro toxicity, ApoTox-Glo assay. In kind it is cell-based.
Another data set relates to HilD mutants. The experiment in a line: Alanine scan, plasmid-based whole-cell PhilA activation assay. Also on record: species or system S. Typhimurium. Conditions: C26 100 μM. How it is done:
A plasmid-based assay in a ΔSPI-1 background strain was developed to facilitate the introduction of point mutations in hilD. The Rha cassette (rhaS, rhaR, and Prha) was first deleted from the pT10 backbone ([67]). The fragment PhilD-hilD-PhilA-sfGFP was then inserted upstream of the terminator rrnB. hilD was then deleted from the resulting plasmid to serve as a negative control. Site-directed mutagenesis was performed using KOD polymerase (Novagen). The cell-based fluorescence assay was performed as described above. Statistical analysis was performed by applying a first Bonferroni’s multiple comparisons test to compare treated and untreated conditions within each strain (shown in Fig. 4E) and a second same test to compare the treated mutants to the treated WT condition. The absence of significance in both tests corresponds to mutations inactivating HilD. Significance in the first but not the second test corresponds to a phenotype similar to that of the WT.

A further data set relates to S. Typhimurium SL1344. The experiment in a line: Growth in LB medium (OD at 600 nm). In kind it is cell-based. To be noted: C26 at different concentrations.
A further data set relates to HilC and RtsA. The experiment in a line: Whole-cell PhilA activation by rhamnose-induced hilC or rtsA in ΔhilD backgrounds. Format: cell-based, S. Typhimurium. Conditions: C26 100 μM, rhamnose 2 mM. From the text: Next, we investigated the selectivity of C26 for HilD using the whole-cell PhilA activation assay. In the absence of HilD, the pool of HilC and RtsA is insufficient to activate the expression of hilA. Therefore, assessing the sensitivity of HilC and RtsA to C26 requires PhilA to be activated in a HilD-independent manner. To create such a condition, we used a plasmid-encoded hilC or rtsA under the control of a rhamnose-inducible promoter.
A whole-cell reporter gene assay was used to quantify HilD transcriptional activity. Strain PhilA-sfGFP and the isogenic ΔhilD PhilA-sfGFP were used for this purpose. Cultures were performed in 1 ml of LB supplemented with 0.3 M NaCl. Compounds at different concentrations or 1% (v/v) DMSO were added to the corresponding tubes. Cultures were incubated at 37°C and 180 rpm for 5 hours. Cells were pelleted, resuspended in 100 μl of PBS, and then transferred into a 96-well black clear-bottom plate (Thermo Fisher Scientific, USA). Fluorescence intensity was measured with a Tecan Spark microplate reader with an excitation wavelength of 485 nm and an emission wavelength of 510 nm. Dose-response curves and IC50 values were calculated using CDD Vault.

For data set [1], the system named is S. Typhimurium invasion of HeLa cells. The experiment in a line: Invasion assay into HeLa cells. Conditions: C26 100 μM, MOI 20. Format: cell-based. How it is done:
In a white 24-well plate (NUNC), 10^5 HeLa cells were seeded in 350 μl of DMEM (Gibco), 24 hours before the infection. Bacteria were grown in LB supplemented with 0.3 M NaCl and either compound at different concentrations or 1% (v/v) DMSO, at 37°C with shaking at 180 rpm until an OD600 of 0.9 was reached. Bacteria were then pelleted and washed twice with HBSS. The bacterial suspension was diluted to obtain an MOI of 20 to infect HeLa cells. The plate was centrifuged for 5 min at 300g to synchronize the infection and then incubated for 25 min at 37°C and 5% (v/v) CO2 to allow Salmonella invasion into HeLa cells. To quantify the invasiveness, the cells were first washed three times with 500 μl of prewarmed PBS. The remaining extracellular bacteria were killed with 500 μl of DMEM supplemented with gentamicin (100 μg/ml). HeLa cells were incubated for 1 hour and then washed three times with prewarmed PBS and lysed with 500 μl of 0.5% (v/v) SDS in PBS for 5 min at 37°C on a shaking platform. The lysate was serial diluted in PBS-T [PBS with 0.05% (v/v) Tween 20] to determine the colony-forming units (CFUs) by plating on LB medium supplemented with streptomycin (50 μg/ml).

Data set [2] has as its system T3SS-1 proteins SipA, SctE (SipB), SctP (InvJ); T1SS protein SiiF. The experiment in a line: Western blotting of secreted and whole-cell proteins. Format: cell-based, S. Typhimurium. Conditions: Western blot. How it is done:
Western blot analysis to quantify secreted and nonsecreted proteins was carried out as previously described ([66]). After a 5-hour culture under SPI-1–inducing conditions, cultures were centrifuged at 10,000g for 2 min at 4°C to separate cell pellets for the quantification of target proteins in whole cells, and the supernatant for the quantification of secreted proteins. The supernatants were first filtered with a 0.22-μm pore size filter. Sodium deoxycholic acid was then added to a final concentration of 0.1% (w/v) followed by a protein precipitation with 10% trichloroacetic acid (v/v) for 30 min at 4°C. The samples were pelleted by centrifugation at 20,000g for 20 min at 4°C to retrieve precipitated proteins, which were lastly washed with acetone before resuspension in SDS–polyacrylamide gel electrophoresis (PAGE) loading buffer. Whole-cell samples were directly resuspended in SDS-PAGE loading buffer.
Background: Immunoblotting shows a protein as a band on a membrane.

Another data set concerns the target T1, HilD (Salmonella typhimurium, UniProt P0CL08).
T1 construct: His6-SUMO (N, cleaved yes); made in house; host or cells: E. coli C41(DE3)
The experiment in a line: EMSA, binding to hilA promoter, HilD. Format: biochemical, S. Typhimurium. The procedure:
EMSAs were performed similarly to as described previously ([39]) using a 62–base pair double-stranded (dsDNA) fragment of the hilA promoter, encompassing the A1 binding site ([82]). dsDNA fragments were generated by melting the complementary primers PhilA_A1_f / PhilA_A1_r (table S10) together in TE buffer [10 mM Tris (pH 8.0) and 1 mM EDTA] at 95°C for 10 min before slowly cooling to r.t. The forward primer was modified with a 5′-Cy5 fluorescent dye for detection. The protein (600 nM) was incubated with 50 nM labeled DNA in EMSA buffer [20 mM Tris (pH 8.0), 100 mM KCl, 100 μM EDTA, and 3% glycerol]. C26 was diluted first in DMSO and subsequently 1:100 into the protein-DNA sample. Samples were incubated at 37°C for 15 min, supplemented with diluted DNA loading dye, and separated on a 1.5-mm-thick, 6% (w/v) TBE polyacrylamide gel at 6°C at a constant voltage of 100 V. Gels were imaged using a ChemiDocMP imaging system (Bio-Rad).
In general terms: A gel shift assay detects complexes by their altered migration in electrophoresis.

T1 sequence (P0CL08 whole entry): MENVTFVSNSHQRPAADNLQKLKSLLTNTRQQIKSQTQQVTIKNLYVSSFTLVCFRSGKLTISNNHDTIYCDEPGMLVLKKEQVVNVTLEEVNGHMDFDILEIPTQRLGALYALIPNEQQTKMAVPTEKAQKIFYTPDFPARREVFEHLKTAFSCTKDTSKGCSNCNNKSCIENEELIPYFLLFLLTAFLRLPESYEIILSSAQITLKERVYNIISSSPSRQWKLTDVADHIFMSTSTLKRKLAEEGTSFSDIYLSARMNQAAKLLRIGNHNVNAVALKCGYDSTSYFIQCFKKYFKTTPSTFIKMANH
Description for S. Typhimurium SL1344: Experiment performed in a 96-well plate. Growth assessed by measuring the OD at 600 nm (N = 3 biological replicates).

Consider `CN(CC(=O)NCc1ccc2c(c1)OCO2)Cc1ccc(Br)s1` [C26, N-(benzo[d][1,3]dioxol-5-ylmethyl)-2-{[(5-bromothiophen-2-yl)methyl](methyl)amino}acetamide], for which the TC50 viability entry in the data set with HeLa cells (12 hours exposure) was “could not be calculated because of low toxicity levels”. For the same compound, the TC50 viability in the data set on HeLa cells (18 hours exposure) was found to be 98 µM. Moreover, in the data set with HilD mutants, the “sensitivity of HilD I42A, I100A, N260A, K264A to C26” value is reported as “partial loss of sensitivity” and the “sensitivity of HilD L45A, Y46A, F98A, E102A, Y212A to C26” value was “full loss of sensitivity”. Also, the “growth of S. Typhimurium” value in the data set on S. Typhimurium SL1344 is recorded as “did not impair the growth”. In addition, the “PhilA activation with hilC and/or rtsA as sole activators” value in the data set with HilC and RtsA is listed as “did not lead to a reduction of PhilA activation”. The “invasiveness of HilDY46A mutant into HeLa cells” value in data set [1] is reported as “unaffected”. The “Invasion of HeLa cells (%), of the original inoculum” value in data set [1] (DMSO control 11.75) came out at 3.5%. In data set [2], the “SipA, SctE and SctP secretion into the culture supernatant” value is given as “reduced in a dose-dependent manner”; the “expression of SipA, SctE and SctP in whole cells” value was “blocked the expression”. Also, the “expression of SiiF” value in data set [2] (FLAG-tagged SiiF) is recorded as “dose-dependent reduction”. Moreover, the “DNA binding activity of HilD (hilA promoter)” value at HilD is “dose-dependent inhibition of the DNA binding activity”.

Values taken from publication PMC11988454, “Discovery of synthetic small molecules targeting the central regulator of Salmonella pathogenicity” (Science Advances, 2025).
